Counter-ions that a name gives are not always drawn.
The molecules below were run against Amyloid-beta(1-40) binding to heparin (HS-GAG) (Homo sapiens, UniProt P05067) (assay: Inhibition of Amyloid-beta(1-40) binding to immobilized heparin-BSA (ELISA)). Settings: Abeta40/Heparin Activity (IC-50), Abeta(1-40), co-incubation on heparin-BSA plates.
Design: species or system porcine
Description: Porcine intestinal mucosa heparin conjugated to Bovine Serum Albumin (Heparin-BSA) was prepared as described (Najjam, S. et al. 1997, Cytokine 12, 1013-1022). Heparin is a sulfated HS-GAG and is commonly used as a HS-GAG in biochemical and binding assays (Lindahl, U. and Kjellen, L. (2013) ibid). Heparin-BSA at 0.01 mg/ml in Phosphate Buffered Saline (PBS; pH 7.4) was added to a 96 well polystyrene ELISA plate (NUNC Cat. No. 449824; 100 μl per well) and incubated Over Night (ON) at 4 degrees Celsius. For negative controls, ELISA plates were coated with BSA instead of Heparin-BSA, using the same procedure. Following the incubation, the plate was washed consecutively, by immersion, with de-ionized water and PBS (pH 7.4). The ELISA plate was then blocked with nonfat milk (2%, 200 μl per well) for 2 hours at Room Temperature (RT) with gentle shaking. Following blocking, the plate was washed with de-ionized water then PBS (pH 7.4). GBAPs were dissolved and diluted in PBS (pH 6.5, supplemented with 0.1% BSA) at desired concentrations, added to the ELISA plates containing immobilized Heparin-BSA (100 μl per well) and incubated for 2 hours at RT with gentle shaking. Following incubation, the plate was washed with de-ionized water and three times with PBS (pH 6.5) plus Tween. Bound GBAP was detected by a monoclonal antibody specific for that GBAP, followed by incubation with secondary antibody conjugated to horseradish peroxidase (HRP). Antibody was diluted in PBS (pH 6.5 supplemented with 1% BSA). Following each incubation with antibody, the plate was washed with de-ionized water and three times with PBS (pH 6.5) wash buffer containing 0.1% Tween. The peroxidase substrate chromogen, TMB (Dako Cat. No. S1599) was added (100 μl per well) to the ELISA plate and incubated at room temperature. After 5 minutes ELISA Stop Solution (hydrochloric acid 1N, sulfuric acid 3N) was added (100 μl per well) to stop the peroxidase catalyzed colorimetric reaction. The Optical Density of the samples was measured at 450 nm using an ELISA plate reader (BioTek Synergy H1). Following color development, the % inhibition compared to control (BSA-coated plates) was determined. IC-50s were calculated using GraphPad Prism software.
The assay was performed as described in Example 43, with the following modifications. Following to coating the plates with Heparin-BSA, plates were washed as described. The compounds were dissolved in DMSO at 10 mM final concentration and further diluted prior to assay. DMSO concentration in the screening well was up to 2%. Individual compounds were co-incubated with Beta-amyloid peptides on plates containing immobilized heparin. Beta-amyloid (1-42) was purchased from rPeptide (Cat. No. A1163) and used to prepare oligomers according to Stine et al., 2003 (J Biol Chem. 278(13):11612-22) as follows. 1,1,1,3,3,3-Hexafluoro-2-propanol- (HFIP; Sigma Cat. No. 105228)-treated Beta amyloid (1-42) was dissolved in dry DMSO (Sigma Cat. No. D2650) to 5 mM concentration. Dissolved Beta amyloid (1-42) was then diluted to 100 μM in ice-cold cell culture medium (phenol red-free Ham's F-12; Caisson Labs, Cat. No. HFL05), followed immediately by vortexing for 30 seconds, and incubating at 4 degrees Celsius for 24 h. Resulting Beta amyloid (1-42) oligomers were centrifuged at 12,000 rpm for 10 min at 4 degree Celsius to remove aggregates. Oligomers were then quickly frozen and kept in aliquots at −80 degrees Celsius. Beta-amyloid (1-40) from rPeptide (Cat No. A1153) was dissolved in DMSO, quickly frozen and kept in aliquots at −80 degrees Celsius. Beta-amyloid (1-42) oligomers or Beta-amyloid (1-40) diluted in PBS (pH 6.5, supplemented with BSA, 0.1%) were added to the ELISA plate (100 μl per well) and incubated for 2 hours at RT with gentle shaking. Following the incubation, the plate was washed with de-ionized water and three times with PBS (pH 6.5) plus Tween. […]

Amyloid-beta(1-40) binding to heparin (HS-GAG), sequence (P05067 672-711): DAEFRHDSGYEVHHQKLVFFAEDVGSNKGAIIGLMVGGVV

| Compound | IC50 [µM] |
| --- | --- |
| Clc1ccc2c(N/N=C/c3ccc(-n4ccnc4)nc3)ccnc2c1 [Compound 14, (E)-4-(2-((6-(1H-imidazol-1-yl)pyridin-3-yl)methylene)hydrazineyl)-7-chloroquinoline hydrochloride] | 7.77 |
| Cc1cn(-c2ccc(Nc3cncc4cc(Cl)ccc34)cn2)c(C)n1 [Compound 37, 7-chloro-N-(6-(2,4-dimethyl-1H-imidazol-1-yl)pyridin-3-yl)isoquinolin-4-amine phosphoric acid salt] | 45.6 |
| C/C(=N\Nc1ncnc2cc(Cl)ccc12)c1ccc(-n2cc(C)nc2C)nc1 [Compound 27, (E)-7-chloro-4-(2-(1-(6-(2,4-dimethyl-1H-imidazol-1-yl)pyridin-3-yl)ethylidene)hydrazineyl)quinazoline hydrochloride] | 2.2 |
| C/C(=N\Nc1ncnc2cc(F)ccc12)c1ccc(-n2cc[n+](C)c2)nc1 [Compound 26, (E)-1-(5-(1-(2-(7-fluoroquinazolin-4-yl)hydrazineylidene)ethyl)pyridin-2-yl)-3-methyl-1H-imidazol-3-ium phosphoric acid salt] | 10.2 |
| CCN(CC)Cc1cccc(Nc2ccnc3cc(Cl)ccc23)c1 [Compound 42, 7-chloro-N-(3-((diethylamino)methyl)phenyl)quinolin-4-amine] | 12.3 |
| CC(=NNc1ccnc2cc(Cl)ccc12)c1ccc(-n2ccnc2)cc1 [Compound 36, 4-(2-(1-(4-(1H-imidazol-1-yl)phenyl)ethylidene)hydrazineyl)-7-chloroquinoline phosphate] | 13.8 |
| CCN1CCN(c2ccc(Nc3ccnc4cc5ccccc5cc34)cc2)CC1 [Compound 39, N-(4-(4-ethylpiperazin-1-yl)phenyl)benzo[g]quinolin-4-amine] | 20.7 |
| Clc1ccc2c(N/N=C/c3ccc(-n4cccn4)cc3)ccnc2c1 [Compound 3, (E)-4-((E)-(4-(1H-pyrazol-1-yl)benzylidene)hydrazono)-7-chloro-1,4-dihydroquinoline] | 2.75 |
| O=S1(=O)CCN(Cc2ccc(/C=N/Nc3ccnc4cc(F)ccc34)cc2)CC1 [Compound 10, (E)-4-(4-((2-(7-fluoroquinolin-4-yl)hydrazono)methyl)benzyl)thiomorpholine 1,1-dioxide] | 35.6 |
| Cc1ncn(-c2ccc(/C=N\Nc3ncnc4cc(Cl)ccc34)cn2)c1C [Compound 15, 7-chloro-4-(2-((6-(4,5-dimethyl-1H-imidazol-1-yl)pyridin-3-yl)methylene)hydrazineyl)quinazoline hydrochloride] | 23 |

Same assay, conditions: Abeta(1-40), co-incubation on heparin-BSA plates; read-out: Abeta40/Heparin Activity (IC-50)

| Compound | IC50 [µM] |
| --- | --- |
| C/C(=N\Nc1ncnc2cc(F)ccc12)c1ccc(-n2cnc(C)c2C)nc1 [Compound 21, (E)-4-(2-(1-(6-(4,5-dimethyl-1H-imidazol-1-yl)pyridin-3-yl)ethylidene)hydrazineyl)-7-fluoroquinazoline] | 7.41 |
| C/C(=N\Nc1ncnc2cc(Cl)ccc12)c1ccc(-n2cc(C)nc2C)nc1 [Compound 18, (E)-7-chloro-4-(2-(1-(6-(2,4-dimethyl-1H-imidazol-1-yl)pyridin-3-yl)ethylidene)hydrazineyl)quinazoline phosphoric acid salt] | 3.31 |

Same assay, conditions: read-out: Abeta40/Heparin Activity (% inhibition class)

| Compound | inhibition at 30 µM [%] |
| --- | --- |
| CC(=NNc1ccnc2cc(Cl)ccc12)c1ccc(-n2cc[n+](C)c2)nc1 [Compound 23, 1-(5-(1-(2-(7-chloroquinolin-4-yl)hydrazineylidene)ethyl)pyridin-2-yl)-3-methyl-1H-imidazol-3-ium iodide] | > 30 |
| CN1CCN(c2cc(Nc3ccnc4cc(Cl)ccc34)ccn2)CC1 [Compound 20, 7-chloro-N-(2-(4-methylpiperazin-1-yl)pyridin-4-yl)quinolin-4-amine] | < 30 |
| Fc1cc(/C=N/Nc2ccnc3cc(Cl)ccc23)ccc1-n1ccnc1 [Compound 35, (E)-7-chloro-4-(2-(3-fluoro-4-(1H-imidazol-1-yl)benzylidene)hydrazineyl)quinoline hydrochloride] | < 30 |
